pIC50: −log10 of the molar value.
Tests used:
[1] = target: T1, HDAC3 (Homo sapiens, UniProt O15379); test: Fluorimetric HDAC inhibition assay, HDAC3; type: biochemical; conditions: reduced with DTT
T1 construct: purchased BPS Bioscience 50003
Description: The inhibition of HDAC1, 2, 3, and 6 by JRM-28 was fluorometrically measured using the HDAC Fluorogenic Assay Kit (Catalog# 50034) by BPS bioscience. Purified recombinant human HDAC1 (Cat# 50051), HDAC3 (Cat# 50003), and HDAC6 (Cat# 50056) were also obtained from BPS Bioscience. The enzyme inhibition assay was performed according to the manufacturer’s protocol. […] Purified recombinant HDAC2 (supplied with the fluorogenic kit) was diluted to 6 ng/µL (5 µL/well with the supplied HDAC assay buffer). HDAC 1, 3, and 6 were also diluted to the optimized concentration (5 µL/well) with the HDAC assay buffer. The activity of JRM-28 was measured along with DTT control and DMSO as blank. After adding 5 µL of the diluted HDAC enzymes in designated wells, the 96-well plate (supplied with the kit) was incubated at 37 °C. Then, the reaction was initiated by adding 5 µL of diluted HDAC substrate to each well, followed by another incubation at 37 °C for 30 min. Next, 50 µL of the developer reagent was added to each well and incubated at room temperature for another 15 min. Finally, fluorescence was measured by a microplate absorbance spectrophotometer (PerkinElmer Enspire 2300 Multilabel Multimode Microplate Reader) with an excitation at λ = 485 nm and detection at λ = 528 nm.

[2] = tested on: SHSY5Y cells; test: TUNEL assay; type: cell-based, human; conditions: 24 h, in the presence of DTT
Description: To assess the effect of JRM-28 on apoptosis in SHS5Y cells, a total of 3 × 10^5 cells suspended in […] of complete neurobasal medium was distributed in each well of a poly-D-lysine-coated eight-well Chamber Slide. After 48 h, cells were treated with 2, 5, 10, 20, 30, and 50 μM of JRM-28 under serum-free conditions and then incubated for an additional 24 h. The TUNEL activity was measured by colorimetric microscopy as directed in the protocol described in DeadEnd™ Colorimetric TUNEL System (Promega, Madison, WI, USA). Hematoxylin staining was adopted to counterstain the slide.

[3] = tested on: HDAC2; test: HDAC2 immunoblot and immunofluorescence in SHSY5Y cells; type: cell-based, human
Description: (§1) Immunofluorescence analysis was performed as described earlier. Briefly, cells cultured on coverslip contained in six-well plates (Lab-Tek II) were fixed with 4% paraformaldehyde for 20 min followed by two rinses in TBST. Samples were incubated in a 1:1 solution of TBST and blocking buffer containing rabbit anti-NR2A (1:250), anti-GluR1 (1:250), ant-HDAC2 (1:250), anti-CREB (1:250), and anti-MAP2 (1:250) for 2 h at 37 °C. After three washes in PBST (15 min each), slides were further incubated with FIT-C and TRIT-C-conjugated secondary antibodies. For negative controls, a set of culture slides was incubated under similar conditions with secondary antibodies and without the primary antibodies (Table 3). The samples were mounted and observed under an Accuscope fluorescent microscope. The images were captured and merged in CaptaVision^TM imaging software.
Immunoblot analysis was carried out as described earlier. Briefly, SHSY5Y neuronal cell homogenates were electrophoresed by 4–12% Tris-Glycine gradient gel, proteins were transferred onto a 0.45 μm nitrocellulose membrane, and the protein band was visualized with Odyssey Sa infrared scanner after immunolabeling with primary antibodies followed by infrared fluorophore-tagged secondary antibody (Licor Biosciences, Lincoln, NE, USA).

[4] = tested on: SHSY5Y human neuronal cells; test: MAP2 immunofluorescence/immunoblot, dendritic morphogenesis in SHSY5Y neurons; type: cell-based
Description: (§2) Primary neuronal cell culture was performed based on a protocol approved by the Institutional Animal Care and Use Committee (IACUC) of the University of Wisconsin-Milwaukee, Milwaukee, WI-53211, and by the guidelines set by the National Institute of Health. Embryonic day 18 (E18) fetuses were harvested, and hippocampal tissue was dissected from brains and then processed for single cell culture in poly-D-lysine-coated plates, as discussed elsewhere. Neuronal cells were maintained with B-27^TM-plus-supplemented complete neurobasal media for 7–10 days until fully differentiated. After that, the treatment with JRM-28 was performed. SHSY5Y cells were grown, maintained, and passaged with complete DMEM media (a bottle of DMEM supplemented with 10% FBS, 2 mM L-glutamine, and 100 units/mL antibiotics); otherwise, for neuronal differentiation study, SHSY5Y was seeded with complete neurobasal medium. For making AD neurons, commercially purchased (Axol Bioscience Ltd.) A246E psen1 neural stem cells (NSCs) were maintained with KnockOut^TM DMEM/F12 media supplemented with StemPro^TM Neural Supplement, bFGF, EGF, 2 mM GlutMAX^TM supplement, and 10 mL/L antibiotic-antimycotic solution. These […] NSCs were grown in a […] cell culture flask coated with Geltrex^TM matrix until fully confluent and then detached by Accutase, centrifuged, washed, and plated in a poly-D-lysine-coated plate supplemented with complete neurobasal media for neuronal differentiation. After one week, when neurons were differentiated, JRM-28 treatment was conducted.
Immunofluorescence analysis was performed as described earlier. Briefly, cells cultured on coverslip contained in six-well plates (Lab-Tek II) were fixed with 4% paraformaldehyde for 20 min followed by two rinses in TBST. Samples were incubated in a 1:1 solution of TBST and blocking buffer containing rabbit anti-NR2A (1:250), anti-GluR1 (1:250), ant-HDAC2 (1:250), anti-CREB (1:250), and anti-MAP2 (1:250) for 2 h at 37 °C. After three washes in PBST (15 min each), slides were further incubated with FIT-C and TRIT-C-conjugated secondary antibodies. […]

[5] = tested on: NR2A and GluR1; test: NR2A and GluR1 immunofluorescence in E18 mouse hippocampal neurons; type: cell-based; conditions: 5 µM
Description: as §1

[6] = tested on: mouse primary hippocampal neurons; test: NMDA/AMPA-sensitive calcium influx assay in mouse primary hippocampal neurons; type: cell-based
Description: Mouse primary hippocampal neurons and AD neurons were loaded with Fluo4-fluorescence conjugated calcium dye (Invitrogen Molecular Probes, Cat #F10471) and incubated at 37 °C for 60 min, as described before. Briefly, fluorescence excitation and emission spectra were recorded in a Perkin–Elmer Victor X2 Fluorimetric Spectrometer (Versiti Blood Center, Wauwatosa, WI, USA) in the presence of 50 μM NMDA and AMPA solutions. The recording was performed with 100 repeats at 0.1 ms intervals. The oscillogram was generated with the help of Parkin Elmer 2030 software that was connected to the Victor X2 calcium recorder unit. The real-time calcium noise graph was generated as a kinetic chart plotted on a linear scale.

[7] = tested on: iPSC-derived AD neurons; test: Dual immunofluorescence in iPSC-derived AD neurons (A246E psen1); type: cell-based, human
Description: as §2, §1

T1 sequence (O15379 whole entry): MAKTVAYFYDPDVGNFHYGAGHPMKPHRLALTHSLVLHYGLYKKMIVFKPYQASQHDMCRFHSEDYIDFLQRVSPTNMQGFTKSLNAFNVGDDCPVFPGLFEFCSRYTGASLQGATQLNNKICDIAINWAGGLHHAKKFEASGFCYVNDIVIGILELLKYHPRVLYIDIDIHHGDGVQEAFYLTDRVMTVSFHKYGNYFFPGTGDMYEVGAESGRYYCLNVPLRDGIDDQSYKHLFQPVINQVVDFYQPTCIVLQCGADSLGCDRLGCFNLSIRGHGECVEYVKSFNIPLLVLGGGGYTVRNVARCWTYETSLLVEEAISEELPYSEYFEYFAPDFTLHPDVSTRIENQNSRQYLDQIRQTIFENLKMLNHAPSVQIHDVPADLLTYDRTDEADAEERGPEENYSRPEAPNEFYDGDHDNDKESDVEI
T1 sequence (Q9Y618 395-489 partner limits assumed): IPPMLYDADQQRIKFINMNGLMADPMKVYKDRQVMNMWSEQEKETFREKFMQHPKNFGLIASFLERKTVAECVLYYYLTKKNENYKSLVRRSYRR

pIC50 [1]: 6.55
Hill coefficient HDAC3 (fluorimetric) ([1]; listed as JRM-28 (JRM-28a+28b)): −4.663
SMILES: CN(C(=O)CC(O)/C=C/CCSS(=O)(=O)CC/C=C/C(O)CC(=O)N(C)c1ccccc1)c1ccccc1 (stereo not drawn) [JRM-28, S-((E)-5-hydroxy-7-(methyl(phenyl)amino)-7-oxohept-3-en-1-yl) (E)-5-hydroxy-7-(methyl(phenyl)amino)-7-oxohept-3-ene-1-sulfonothioate]
TUNEL cytotoxicity ([2]; 20 µM): caused nuclear condensation
TUNEL cytotoxicity ([2]; 30 µM): induced significant cell death
TUNEL cytotoxicity ([2]; 50 µM): induced significant cell death
TUNEL cytotoxicity ([2]; lower doses up to 10 µM): did not induce any cell death
nuclear translocation of HDAC2 (immunocytochemistry) ([3]; 5 µM): significantly arrested the nuclear translocation of HDAC2
HDAC2 expression in nuclei (dual IF with CREB) ([3]; 5 µM, SHSY5Y cells): significantly attenuated the expression of HDAC2 in the nuclei
HDAC2 expression (immunoblot) ([3]; 2, 5, and 10 µM, 24 h, versus control): did not upregulate the expression of HDAC2
dendritic length / dendritic morphogenesis ([4]; 5 µM versus control, n = 200 per group): augmented the dendritic morphogenesis
dendritic pruning (MAP2-ir appendages) ([4]; 5 µM, 48 h (legend: 24 h)): significantly stimulated dendritic pruning
MAP2 expression (immunoblot) ([4]; 5 and 10 µM): upregulated the expressions of MAP2
expressions of NR2A and GluR1 (IF, MFI) [5]: upregulated
AMPA-sensitive calcium influx ([6]; 5 µM, 24 h): strongly upregulated
NMDA-sensitive calcium influx ([6]; 5 µM, 24 h): strongly upregulated
optimum dose for the calcium influx ([6]; 2, 5, and 10 µM tested): 5 µM
NMDA- and AMPA-driven calcium influx after creb siRNA ([6]; creb knocked down by creb siRNA): significantly abrogate
expressions of ionotropic glutamate receptors (NR2A, GluR1) ([7]; 5 µM): augmented the expressions of ionotropic glutamate receptors
length of MAP2-ir basal dendrites ([7]; 5 µM): increase the length of MAP2-ir basal dendrites
CREB expression (dual IF) ([7]; 5 μM, 24 h (legend: 48 h)): strong upregulation of CREB
HDAC2 expression (dual IF) ([7]; 5 μM, 24 h (legend: 48 h)): significant downregulation of HDAC2

Source: PMC11640089, “JRM-28, a Novel HDAC2 Inhibitor, Upregulates Plasticity-Associated Proteins in Hippocampal Neurons and Enhances Morphological Plasticity via Activation of CREB: Implications for Alzheimer’s Disease” (Cells, 2024)
